US20140243243A1, “DEVICE AND METHOD FOR CELL-EXCLUSION PATTERNING” (Corning Incorporated, priority 2012, published 2014)

Test system: cells growing in a cell-exclusion patterned cell culture
Assay: Cell-exclusion patterned cell culture in the presence and absence of a drug (cell proliferation and migration)
Format: cell-based
Conditions: uncoated well bottoms; micrographs pretreatment (t=0 h), after 14 h and 40 h of treatment; FIG. 11
Procedure: Cell-exclusion patterning was carried out by a sequence of steps, as illustrated in FIG. 3. In Step A, complete medium was added to wells of a microtiter plate. The volume added was approximately 30 ul for 384-well plates or 75 ul for 96-well plates. In step B, a comb having guide pins and blocking pins was lowered into the microtiter plate and the blocking pins were locked into the desired wells and the guide pins into the corresponding guide holes. In step C, cells were introduced into the wells of the microtiter plate by adding a solution containing cells to the walls of the wells. The volume of the cell solution was approximately 20 ul for 384-well plates or 25-50 ul for 96-well plates. The cell density was 8000 cells per well and 30,000 cells per well for 384- and 96-well plates, respectively. In step D, the cells were allowed to settle and adhere to the well bottom inside a cell culture hood for about 45 min. The microplates were then placed inside a humidified incubator at 37° C. and 5% CO2 for 3-4 h to allow the cells to attach to the well bottom. In step E, the comb and the pins were removed from the wells. Drugs were then added, if necessary to carry out an assay.
Cell patterns were imaged by bright-field or fluorescent microscopy or by using Corning Epic® label-free high-resolution optical resonance detection system (available from Corning Incorporated, Corning, N.Y.). […]

C=C1[C@@H](C)[C@H]2[C@H](Cc3ccccc3)NC(=O)[C@]23[C@H](OC(C)=O)/C=C/[C@@](C)(O)C(=O)[C@@H](C)C/C=C/[C@H]3[C@@H]1O [CytoD, Cytochalasin D]
growth of cells into the cell exclusion area over time: cells do not grow into the cell exclusion area over time
